# Data from patent publication US20100022600A1, “METHODS AND COMPOSITIONS FOR TREATING CENTRAL NERVOUS SYSTEM TUMORS” (priority 2006, published 2010).
# Tests used:
# human glioma cells U87 = test: MTT viability assay, human U87 glioma cells; format: cell-based; conditions: 30 μM pio; 3, 5 and 7 d
# Method: Rat C6 glioma cells were grown in DMEM and human glioma cells (U87, A172) in RPMI, supplemented with 10% (v/v) fetal calf serum, 100 U/mL penicillin and 100 U/mL streptomycin in a 5% CO2 atmosphere. Primary astrocyte cultures were prepared as described previously (J Neurosci 1998; 18: 4451-60) and grown in DMEM, supplemented with 2.5% (v/v) fetal calf serum, 100 U/mL penicillin and 100 U/mL streptomycin in a 5% CO2 atmosphere. […] Experiments were performed in triplicate.
# Bax = test: Western blot of Bax in whole-hemisphere lysates, C6 rat glioma model; format: in vivo
# Method: (§1) For western-blot analysis, tumor-containing hemispheres were homogenized in Tris-HCl [50 mM Tris-HCl pH8, 120 mM NaCl, 5 mM EDTA, 0.5% (v/v) NP-40, […] phenylmethylsulfonyl fluoride (PMSF)] and sonicated. Homogenates were collected by centrifugation (15 min 11000 g. 4° C.) and protein concentration in the supernatant was determined using the Bio-Rad Protein Assay (Biorad, Munich, Germany). Lysates (20-40 μg) were separated on a 7% (w/v) sodium dodecyl sulfate (SDS)-polyacrylamide gel under reducing conditions and transferred to a PVDF membrane (Millipore, Bedford, Mass., USA). Non-specific binding was blocked by incubation with 5% (w/v) skimmed milk in TBS for 2 h. Following incubation with the primary antibody overnight at 4° C. [rabbit anti-BAX 1:1000, rabbit anti-cleaved caspase-3 1:1000, mouse […] 1:1000, goat anti-MMP-9 1:1000 in TBS containing 0.1% (v/v) Tween 20] membranes were washed three times in TBS/Tween for 5 min and subsequently incubated for 120 min in TBS/Tween containing secondary peroxidase-conjugated antibody at room temperature (anti-rabbit 1:1000, anti-mouse 1:1000; anti-goat 1:1000 respectively). Signals were visualized by chemoluminescence (Pierce, Rockford, Ill., USA) and band intensities were quantified with NIH Image 1.62 software (Bethesda, Md., USA).
# cleaved caspase-3 = test: Immunohistochemistry of cleaved caspase-3 in tumors, C6 rat glioma model; format: in vivo; conditions: 6 to 14 days of pio treatment, significant maximum at 9 d
# Method: Frozen brain sections were first blocked with 5% normal goat serum or normal horse serum in PBS and subsequently incubated with rabbit anti-Ki-67 antibody (1:200 dilution), mouse anti-CS-56 (1:100 dilution), goat anti-MMP-9 (1:100 dilution) or rabbit anti-cleaved caspase-3 antibody (1:200 dilution) at 4° C. overnight. Sections were washed extensively with PBS before incubation with secondary antibodies. Incubation was carried at room temperature for 1 h. After washing with PBS three times, stained slides were mounted with PBS/glycerol (1:1) and viewed under a fluorescent microscope (Leica, Germany). […] The percentage of cleaved caspase-3 positive cells was assessed by counting the immunopositive cells in 1×10^3 tumor (DAPI stain) cells and statistically compared.
# C6 glioma tumor cells = test: TUNEL assay for apoptosis in tumors, C6 rat glioma model; format: in vivo; conditions: 9 days of pio treatment
# Method: Frozen brain tissue sections were examined for apoptosis using the terminal deoxynucleotidyl transferase-mediated dUTP transferase nick-end labeling (TUNEL assay). Apoptosis was evaluated using the Promega DeadEnd Fluorometric Tunel System (Promega, Madison, Wis., USA) according to the manufacturer's instructions. The percentage of TUNEL positive cells was assessed by counting the immunopositve cells in 1×10^3 tumor (DAPI stain) cells and statistically compared.
# C6 glioma cells = test: Boyden chamber assay, C6 cell migration; format: cell-based, rat
# Method: C6 cell migration in the presence or absence of pio was assessed using a Boyden chamber (AP48, NeuroProbe, Gaithersburg, Md., USA) with an 8 μm polycarbonate PVPF-filter (Osmonics, Minnetonka, Minn., USA). Cells were suspended in DMEM containing 2.5% fetal calf serum and pio at 30 μM or vehicle (DMSO). C6 glioma cells were pretreated for 24 h in the presence or absence of 30 μM pio. Cells (5×10^3 in 50 μl pio/medium or vehicle/medium) were then plated in the wells of the upper compartment of the chamber (6 well/condition), and the wells of the lower compartment were filled with DMEM. Incubation was performed at 37° C. in 5% CO2 for 4 h. After incubation, cells on the upper surface of the filter, which had not migrated, were gently scraped off, and the filters were then fixed in methanol and subsequently stained with DAPI (1:500 in PBS; Sigma, St. Louis, Mo., USA). The number of cells which migrated to the lower surface of the filter, was counted using public domain software NIH Image 1.62 (Bethesda, Md., USA). Total number of migrating cells under pio treated and vehicle treated condition were compared statistically. Experiments were performed in duplicate.
# CS-56 = CS-56 expression in vivo (western blot, immunohistochemistry); design: species or system rat
# Method: as §1, with “Md., USA). Frozen brain sections were first blocked with 5% normal goat serum or normal horse serum in PBS and subsequently incubated with rabbit anti-Ki-67 antibody (1:200 dilution), mouse anti-CS-56 (1:100 dilution), goat anti-MMP-9 (1:100 dilution) or rabbit anti-cleaved caspase-3 antibody (1:200 dilution) at 4° C. overnight. Sections were washed extensively with PBS before incubation with secondary antibodies. Incubation was carried at room temperature for 1 h. After washing with PBS three times, stained slides were mounted with PBS/glycerol (1:1) and viewed under a fluorescent microscope (Leica, Germany).” for “Md., USA).”
compound,measurement,setting,value
"CCc1ccc(CCOc2ccc(CC3SC(=O)NC3=O)cc2)nc1 (centres unmarked) [pioglitazone, 5-[4-[2-(5-ethylpyridin-2-yl)ethoxyl]benzyl]thiazolidine-2,4-dione]","cellular viability, effect in words",human glioma cells U87,significantly reduced cellular viability
same,"Bax-protein levels versus vehicle (densitometry), in words","Bax; 3, 6, 9 and 14 d",significant difference
same,induction of Bax protein (densitometry),Bax; 6 d of pio treatment,1.66 fold
same,upregulation of proapoptotic proteins,Bax; after 21 days of treatment (data not shown),not associated with an upregulation of proapoptotic proteins
same,cleaved caspase-3 expression (immunohistochemistry),cleaved caspase-3,elevated cleaved caspase-3 expression
same,TUNEL staining,C6 glioma tumor cells,Increased TUNEL staining
same,invasiveness of C6 cells (migrated cells),"C6 glioma cells; pio 30 μM during the Boyden chamber incubation, 4 h",reduced the invasiveness of C6 cells significantly
same,inhibition of invasiveness after pretreatment,C6 glioma cells; pretreatment of C6 cells for 24 h with 30 μM pio,further increased inhibition
same,CS-56 expression (western blot),CS-56; tissue lysates,upregulation of CS-56 expression
same,increase in CS-56 protein levels (densitometry),CS-56; tissue lysates,around 56%
same,CS-56 expression (immunohistochemistry),CS-56; tumor margin towards healthy brain tissue,upregulation of CS-56
